Results published in patent US11155814B2, “Methods for using DNA repair for cell engineering” (Caribou Biosciences, Inc., priority 2016, dated 2021).

Test system: HEK293T cells
Assay: Compound treatment: DNA-PK inhibitor added after sgRNP nucleofection, DNA repair outcomes profiled by amplicon sequencing
Assay type: cell-based, human
Experimental: For compound treatments, sgRNP formation and nucleofection of 293T cells was performed as described above and cells were plated in 150 μl of culture medium. One hour after plating, 50 μl of media containing compound at 4× the final concentration were delivered to the cells. […] 48 hours after compound addition, cells were harvested and processed for genomic DNA preparation as described below.
K562 cells and HSCs were transferred to a thermal cycler compatible plate and pelleted by centrifugation. After the media was gently aspirated, 50 μl EpiBio QuickExtract DNA extraction solution (Epicentre, QE09050) was added into each well and the plate was incubated at 37° C. for 15 minutes. For HEK293 and HCT116 cells, media was gently aspirated from 96-well culture plates and cells were gently rinsed with 1×Phosphate Buffered Saline (PBS). 50 μl of EpiBio QuickExtract DNA extraction solution was added to each well and the plates were incubated at 37° C. for 15 minutes. For all cell types, molecular biology grade water (Teknova) was added to each well to attain a concentration of 1000 genomic copies/μl for subsequent PCR reactions. After addition of water, adherent cells were then transferred to thermal cycler compatible plates. All cell types were lysed (75° C. 10 min, 95° C. 5 min) and the lysate was stored at −80° C. […]
Following secondary alignment, reads were then categorized as “mutant” if they contained an indel within ±5 base pairs of the cut site; otherwise, they were categorized as “wild type”. Each mutant read was assigned to an “indel class” based on the indel type (insertion or deletion), start site, and length.
Heat maps were generated from the processed sequencing data as follows. […] The color intensities in the cells correspond to frequency as a fraction of mutant reads, with the color scale ranging from 0 to 0.2 (saturation). […]

[1] = as inhibitor concentration increased (1.56 μM-25 μM), 48 hours

O=c1cc(N2CCOCC2)oc2c(-c3cccc4c3sc3ccccc34)cccc12 [NU7441]
mean frequency of a subset of large deletions (>3 base pairs) present in the DNA repair profiles [1]: increased | mean frequency of single base insertions and small deletions (<3 base pairs) [1]: decreased | change of the DNA repair patterns at 12 different target sites compared with untreated samples (lowest concentration of inhibitor (1.56 μM), added one hour post nucleofection, harvested 48 hours): apparent
